Reference: patent publication US12612407B2, “Imidazo[2,1-f][1,2,4]triazin-4-amine derivatives as TLR7 agonist” (BEIGENE, LTD., priority 2020, dated 2026)

Target: T1, human TLR7 (Homo sapiens, UniProt Q9NYK1)
T1 construct: host or cells: HEK293 (HEK-Blue hTLR7)
T1 sequence (Q9NYK1 27-1049): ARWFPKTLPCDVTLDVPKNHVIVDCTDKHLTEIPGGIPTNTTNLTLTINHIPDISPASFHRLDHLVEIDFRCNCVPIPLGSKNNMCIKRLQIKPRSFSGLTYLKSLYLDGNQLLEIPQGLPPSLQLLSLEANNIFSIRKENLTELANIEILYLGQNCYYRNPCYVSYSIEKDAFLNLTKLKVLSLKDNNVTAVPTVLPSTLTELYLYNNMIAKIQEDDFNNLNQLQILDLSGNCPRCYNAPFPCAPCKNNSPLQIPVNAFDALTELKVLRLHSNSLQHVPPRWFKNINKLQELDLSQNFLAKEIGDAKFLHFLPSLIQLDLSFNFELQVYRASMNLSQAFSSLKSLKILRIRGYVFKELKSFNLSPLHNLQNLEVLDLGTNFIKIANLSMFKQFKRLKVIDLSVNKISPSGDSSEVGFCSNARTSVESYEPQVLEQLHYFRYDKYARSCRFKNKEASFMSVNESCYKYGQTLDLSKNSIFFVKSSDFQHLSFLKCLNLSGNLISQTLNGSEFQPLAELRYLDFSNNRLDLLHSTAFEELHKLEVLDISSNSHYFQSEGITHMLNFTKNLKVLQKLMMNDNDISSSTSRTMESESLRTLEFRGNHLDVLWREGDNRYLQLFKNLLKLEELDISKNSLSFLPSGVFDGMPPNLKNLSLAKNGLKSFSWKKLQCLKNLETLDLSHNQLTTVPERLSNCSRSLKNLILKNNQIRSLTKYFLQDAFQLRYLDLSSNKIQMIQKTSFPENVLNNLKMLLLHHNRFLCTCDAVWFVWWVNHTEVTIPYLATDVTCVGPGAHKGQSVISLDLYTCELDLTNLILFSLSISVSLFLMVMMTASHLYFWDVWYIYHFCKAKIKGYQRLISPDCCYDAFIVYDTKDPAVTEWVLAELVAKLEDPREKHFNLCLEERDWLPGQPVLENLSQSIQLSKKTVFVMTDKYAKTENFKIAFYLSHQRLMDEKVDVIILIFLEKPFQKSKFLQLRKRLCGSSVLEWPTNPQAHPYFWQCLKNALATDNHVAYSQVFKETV
Assay: HEK293-Blue hTLR7 Reporter Assay (QUANTI-BLUE, SEAP readout)
Type: cell-based
Details: HEK-Blue-hTLR7 cells, 24 hrs treatment, Table 1, B1-B232
Summary of the method: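 HEK-Blue-hTLR7 cells expressing NF-κB/AP-1-driven SEAP, 4×10^4 cells/well, treated 24 h at 37° C with increasing compound concentrations. Supernatant SEAP measured with Quanti-blue substrate (10-30 min, 37° C) at 620-655 nm; EC50 from sigmoidal dose-response fit.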

Compound	EC50
CCCOc1nc(N)c2ncc(Cc3cnc(N4CCNCC4)c(C)c3)n2n1 [Compound B93, 7-((5-methyl-6-(piperazin-1-yl)pyridin-3-yl)methyl)-2-propoxyimidazo[2,1-f][1,2,4]triazin-4-amine]	641 nM
CCCCOc1nc(N)c2ncc(Cc3cnc(N4CCC(CN(C)C)CC4)c(C)c3)n2n1 [Compound B59, 2-butoxy-7-((6-(4-((dimethylamino)methyl)piperidin-1-yl)-5-methylpyridin-3-yl)methyl)imidazo[2,1-f][1,2,4]triazin-4-amine]	20 nM
CCCCOc1nc(N)c2ncc(Cc3ccc(C4CCN(C(=O)CN(C)C)CC4)cc3)n2n1 [Compound B14, 1-(4-(4-((4-amino-2-butoxyimidazo[2,1-f][1,2,4]triazin-7-yl)methyl)phenyl)piperidin-1-yl)-2-(dimethylamino)ethan-1-one]	96 nM
Cc1cc(Cc2cnc3c(N)nc(NCCC(C)C)nn23)cnc1N1CCNCC1 [Compound B85, N^2-isopentyl-7-((5-methyl-6-(piperazin-1-yl)pyridin-3-yl)methyl)imidazo[2,1-f][1,2,4]triazine-2,4-diamine]	1360 nM
Cc1cc(Cc2cnc3c(N)nc(OC4CCCCC4)nn23)cnc1N1CCNCC1 [Compound B167, 2-(cyclohexyloxy)-7-((5-methyl-6-(piperazin-1-yl)pyridin-3-yl)methyl)imidazo[2,1-f][1,2,4]triazin-4-amine]	497 nM
Cc1cc(Cc2cnc3c(N)nc(OCC4CCOC4)nn23)cnc1N1CCNCC1 (centres unmarked) [Compound B193, 7-((5-methyl-6-(piperazin-1-yl)pyridin-3-yl)methyl)-2-((tetrahydrofuran-3-yl)methoxy)imidazo[2,1-f][1,2,4]triazin-4-amine]	902 nM
CCCCOc1nc(N)c2ncc(Cc3cnc(N4CCC(COC)CC4)c(C)c3)n2n1 [Compound B104, 2-butoxy-7-((6-(4-(methoxymethyl)piperidin-1-yl)-5-methylpyridin-3-yl)methyl)imidazo[2,1-f][1,2,4]triazin-4-amine]	> 10000 nM
CCCCOc1nc(N)c2ncc(Cc3cnc(N4CCC5(CCNC5)CC4)c(C)c3)n2n1 [Compound B82, 2-butoxy-7-((5-methyl-6-(2,8-diazaspiro[4.5]decan-8-yl)pyridin-3-yl)methyl)imidazo[2,1-f][1,2,4]triazin-4-amine]	431 nM

Now from value to compound:

EC50	Compound
26 nM	CCC[C@@H](CC)Oc1nc(N)c2ncc(Cc3cnc(N4CCNCC4)c(C)c3)n2n1 (single isomer, unassigned) [Compound B225]
14 nM	CCCC(CCO)Oc1nc(N)c2ncc(Cc3cnc(N4CCC(CNC)CC4)c(C)c3)n2n1 (centres unmarked) [Compound B229, 3-((4-amino-7-((5-methyl-6-(4-((methylamino)methyl)piperidin-1-yl)pyridin-3-yl)methyl)imidazo[2,1-f][1,2,4]triazin-2-yl)oxy)hexan-1-ol]
5.5 nM	CCCC(C)Nc1nc(N)c2ncc(Cc3cnc(N4CCC(N(C)C)CC4)c(C)c3)n2n1 (centres unmarked) [Compound B138, 7-((6-(4-(dimethylamino)piperidin-1-yl)-5-methylpyridin-3-yl)methyl)-N^2-(pentan-2-yl)imidazo[2,1-f][1,2,4]triazine-2,4-diamine]
2.3 nM	CCC[C@H](C)Nc1nc(N)c2ncc(Cc3cnc(N4CCC(N(C)C)CC4)c(C)c3)n2n1 (single isomer, unassigned) [Compound B173]
29 nM	CCC(CC)Oc1nc(N)c2ncc(Cc3cnc(N4CCC(N(C)C)CC4)c(C)c3)n2n1 [Compound B187, 7-((6-(4-(dimethylamino)piperidin-1-yl)-5-methylpyridin-3-yl)methyl)-2-(pentan-3-yloxy)imidazo[2,1-f][1,2,4]triazin-4-amine]
6.5 nM	CCCC(C)Oc1nc(N)c2ncc(Cc3cnc(N4CCC(CNC)CC4)c(C)c3)n2n1 (centres unmarked) [Compound B205, 7-((5-methyl-6-(4-((methylamino)methyl)piperidin-1-yl)pyridin-3-yl)methyl)-2-(pentan-2-yloxy)imidazo[2,1-f][1,2,4]triazin-4-amine]
